Broadly, the IC50 is the concentration at which inhibition is half-maximal. One may read the MIC50 as the lowest concentration that inhibits either 50% of growth or 50% of the strains tested, depending on the study.

For experiment [1], the target named is T1, Phospho-N-acetylmuramoyl-pentapeptide-transferase (Staphylococcus aureus, UniProt P0C1R8).
T1 sequence (P0C1R8 whole entry): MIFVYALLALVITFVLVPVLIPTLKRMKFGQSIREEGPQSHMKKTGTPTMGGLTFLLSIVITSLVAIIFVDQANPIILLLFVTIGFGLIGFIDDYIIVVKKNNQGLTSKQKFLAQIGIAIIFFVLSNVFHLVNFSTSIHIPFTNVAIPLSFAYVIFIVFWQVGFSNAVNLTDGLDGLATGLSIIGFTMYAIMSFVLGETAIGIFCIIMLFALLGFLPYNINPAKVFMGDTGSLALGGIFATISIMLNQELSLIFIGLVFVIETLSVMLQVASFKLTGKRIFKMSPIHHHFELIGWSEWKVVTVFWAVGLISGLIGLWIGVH
As to the kind of experiment: Inhibition of Staphylococcus aureus MraY assessed as reduction of dansylated lipid I formation using UDP-MurNAcdansylpentapeptide as substrate incubated for 3 to 4 hrs by fluorescence based analysis.

Experiment [2] has as its system Mycobacteroides abscessus. As to the kind of experiment: Antibacterial activity against Mycobacterium abscessus ATCC 19977 assessed as inhibition of bacterial growth incubated for 5 days by microplate reader analysis. The format is functional. To be noted: ATCC 19977, 120 h, time 5 day.

The structures appear in SMILES notation. In brackets after ≈: the same amount, converted by molar mass.

In the case of `NC[C@H]1O[C@@H](O[C@@H](C#Cc2ccccc2)[C@@]23CO[C@@H]([C@H](n4ccc(=O)[nH]c4=O)O2)[C@@H]3O)[C@H](O)[C@@H]1O`, the IC50 in experiment [1] is 37 µM. For the same compound, the MIC50 in experiment [2] was above 32 µg/mL.
The matching figures for `CC[C@H](O[C@@H]1O[C@H](CN)[C@@H](O)[C@H]1O)[C@@]12CO[C@@H]([C@H](n3ccc(=O)[nH]c3=O)O1)[C@@H]2O`: 4.5 µM and 32 µg/mL (≈ 77 µM).
The matching figures for `C#C[C@H](O[C@@H]1O[C@H](CN)[C@@H](O)[C@H]1O)[C@@]12CO[C@@H]([C@H](n3ccc(=O)[nH]c3=O)O1)[C@@H]2O`: 24 µM and above 32 µg/mL.
The like results for `NC[C@H]1O[C@@H](O[C@@H](C#Cc2ccccc2)[C@H]2O[C@@H](n3ccc(=O)[nH]c3=O)[C@H](O)[C@@H]2O)[C@H](O)[C@@H]1O` were, in that order, 2.3 µM and above 32 µg/mL.
In the case of `NC[C@H]1O[C@@H](OC[C@@]23CO[C@@H]([C@H](n4ccc(=O)[nH]c4=O)O2)[C@@H]3O)[C@H](O)[C@@H]1O`, the IC50 in experiment [1] turned out to be 46 µM. Also, the MIC50 in experiment [2] is above 32 µg/mL.
Take `C#C[C@H](O[C@@H]1O[C@H](CN)[C@@H](O)[C@H]1O)[C@H]1O[C@@H](n2ccc(=O)[nH]c2=O)[C@H](O)[C@@H]1O`: the IC50 in experiment [1] is 20 µM. Moreover, the MIC50 in experiment [2] was above 32 µg/mL.
